Laboratory results published in PMC2827657 (Biochemistry, 2010).

Experiments:
NSMOA [1] = biological target: NSMOA (Pseudomonas putida, UniProt O33471); assay: Linkage relationships of ligand binding and redox equilibria of NSMOA; set-up: species or system Pseudomonas putida S12
apo NSMOA = apo NSMOA (Pseudomonas sp, UniProt O50214); assay: biochemical
P. putida S12 = details: growth of P. putida S12; cited from earlier work
NSMOA [2] = biological target: NSMOA (Pseudomonas sp, UniProt O50214); assay: Stopped-flow fluorescence kinetics of oxidized FAD binding to NSMOA; set-up: species or system Pseudomonas putida S12; details: 280 μM NSMOA mixed with 50 μM FAD, 25°C, four-exponential fit
[3] = cited from earlier work
[4] = calculated from linkage relationships

NSMOA (Pseudomonas sp, UniProt O50214), sequence (O50214 whole entry): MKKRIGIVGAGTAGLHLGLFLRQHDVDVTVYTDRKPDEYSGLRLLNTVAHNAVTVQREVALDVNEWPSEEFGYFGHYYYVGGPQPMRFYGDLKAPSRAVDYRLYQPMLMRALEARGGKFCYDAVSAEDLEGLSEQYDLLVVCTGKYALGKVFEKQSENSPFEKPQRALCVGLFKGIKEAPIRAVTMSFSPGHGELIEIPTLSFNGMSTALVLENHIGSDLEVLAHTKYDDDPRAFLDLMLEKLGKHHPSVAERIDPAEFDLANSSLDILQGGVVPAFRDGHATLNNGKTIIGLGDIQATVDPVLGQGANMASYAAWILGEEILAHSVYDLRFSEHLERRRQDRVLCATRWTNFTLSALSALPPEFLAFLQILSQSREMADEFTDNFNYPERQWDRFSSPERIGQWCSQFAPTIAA
apo NSMOA, sequence (O50214 whole entry): as above

## c1ccccc1 [benzene, reference compound]
NSMOA [1]; benzene affinity for reduced-FAD complex of NSMOA relative to comparison state
  positive cooperative interaction of benzene and reduced FAD binding (Kd1/Kd7): ~2 fold
NSMOA [1]; relative to oxidized FAD cooperativity
  decrease in cooperativity of substrate-analog and reduced-FAD binding equilibria: 30 fold
Apo NSMOA
  Kd: 4.2 ± 0.37 mM

## C=Cc1ccccc1 [styrene]
P. putida S12
  styrene concentration at which growth is inhibited: greater than 300 μM

## Cc1cc2nc3c(=O)[nH]c(=O)nc-3n(C[C@H](O)[C@H](O)[C@H](O)COP(=O)(O)OP(=O)(O)OC[C@H]3O[C@@H](n4cnc5c(N)ncnc54)[C@H](O)[C@@H]3O)c2cc1C [oxidized FAD, flavin adenine dinucleotide]
NSMOA [2]
  rate constant k1: 265 s⁻¹
  rate constant k2: 120 s⁻¹
  rate constant k3: 21 s⁻¹
  rate constant k4: 0.34 s⁻¹
NSMOA [1]; [4]
  equilibrium midpoint potential of FAD bound to benzene-bound NSMOA: -142 mV
  equilibrium midpoint potential of FAD bound to benzene-free NSMOA: -97 mV
[3]
  Em1, solution potential of free FAD: -212 mV
